The values that follow come from patent publication US11191746B2, “Composition for inhibiting a growth of cancer stem cells comprising ciclesonide” (JEJU NATIONAL UNIVERSITY INDUSTRY-ACADEMIC COOPERATION …, priority 2016, dated 2021).

Experiment [1] concerns tumorspheres. Description: Tumorsphere proliferation (cell counting). The format is cell-based, human. The settings on record: tumorspheres treated 2 days, single cells replated and counted on days 1 to 3. The method, then: FIG. 11B illustrates the effect of ciclesonide on tumorsphere formation wherein ciclesonide inhibits the growth of tumorspheres, tumorspheres having been treated with ciclesonide or DMSO for 2 days were separated into single cells and plated in 6 cm dishes at the same density, 24 hours after plating, the cells were counted, on days 1, 2, and 3, the cells were counted three times, and plotted as mean values, and the data was expressed as the mean±SD for the three independent experimental results. *p<0.05 vs. DMSO-treated control; and […]

Experiment [2] relates to STAT3. Description: Western blotting of mammosphere nuclear proteins. The settings on record: MCF-7 cells-derived mammospheres. The format is cell-based, human. The method, then:
Proteins isolated from ciclesonide-treated MCF-7 or MDA-MB-231 mammospheres were separated on 10% SDS-PAGE and transferred to a polyvinylidene difluoride membrane (Millipore, Bedford, Mass., USA). The membrane was blocked in PBS-Tween 20 (0.1%, v/v) containing 5% skimmed milk at room temperature for 30 minutes. The blot was incubated at 4° C. overnight with a blocking solution containing primary antibodies. The primary antibodies used were as follows: Stat3, p65, Lamin B, and phospho-Stat3 (Cell Signaling, Beverly, Mass., USA). β-actin (Santa Cruz Biotechnology) was used as a loading control. After washing with PBS-Tween 20 (0.1%, v/v), the blot was incubated with horseradish peroxidase-conjugated secondary antibodies, and photosensitized with a chemiluminescence detection kit (Santa Cruz Biotechnology).
(In general: In western blotting, separated proteins are transferred to a membrane and probed.)

The subject of experiment [3] is IL-8. Description: Human inflammatory cytokine assay (CBA), mammosphere culture solution. The settings on record: MDA-MB-231 mammosphere culture solution. The experiment is classed as cell-based. The method, then:
(§1) Mixed capture beads were vortexed and 50 μl of beads were added to assay tubes. 50 μl of human inflammatory cytokine standard and the cultured tumorsphere solution were added to the assay tubes, and then mixed with a cytokine PE solution. After 3 hours, the mixed solution was washed and analyzed by flow cytometry (Accuri C6, BD, San Diego, Calif., USA).

In experiment [4] the test system is IL-8. Description: Human inflammatory cytokine assay (CBA), tumorspheres. The format is cell-based. Particulars: A549 tumorspheres. As to the method: as §1
Experiment [5] relates to Nanog. Description: Real-time PCR of self-renewing genes in mammospheres. The experiment is classed as cell-based, human. The settings on record: RT-PCR, β-actin internal control. The method, then: (§2) The levels of transcripts were measured with a One Step SYBR PrimeScript RT-PCR kit (Takara, Tokyo, Japan) using SYBR green as a double-stranded DNA-specific dye in accordance with the manufacturer's protocol. One-step RT-PCR was performed on 1 μg of total RNA, 10 μl of 2× One Step SYBR RT-PCR Buffer IV, and 1 μl of PrimeScript 1 step Enzyme Mix II using PCR forward and reverse primers of each of CD44, NANOG, OCT4, C-myc, Sox2, Snail, and β-actin at a final volume of 20 μl per reaction.
(§3) The relative expression level of mRNA of the target gene was calculated using a comparative CT method. At least three independent PCR procedures were performed in accordance with statistical analysis. PCR products were normalized with the […] gene as an internal control.
In general terms: In qPCR the cycle at which signal appears reflects the starting amount.

The subject of experiment [6] is C-myc. The experiment is described as above. The experiment is classed as cell-based, human. The settings on record: RT-PCR, β-actin internal control. As to the method:
as §2, §3

The test system of experiment [7] is Sox2. Described as above. Particulars: RT-PCR, β-actin internal control. The experiment is classed as cell-based, human. The method, then:
as §2, §3

The subject of experiment [8] is Oct4. Described as above. The format is cell-based, human. The settings on record: RT-PCR, β-actin internal control. The method, then:
as §2, §3

The test system of experiment [9] is CD44. The description is as above. The experiment is classed as cell-based, human. The settings on record: RT-PCR, β-actin internal control. As to the method:
as §2, §3

`CC(C)C(=O)OCC(=O)[C@@]12O[C@H](C3CCCCC3)O[C@@H]1C[C@H]1[C@@H]3CCC4=CC(=O)C=C[C@]4(C)[C@H]3[C@@H](O)C[C@@]12C` [ciclesonide]: the “growth of tumorspheres (number of survived cancer cells)” value in [1] is “inhibited”. The “phosphorylation of nuclear STAT3 protein compared to a control” value in [2] is “reduced”. In [3], the “production level of secreted IL-8” value was “reduced”. Besides, the “production level of IL-8” value in [4] is given as “reduced”. Besides, the “expression of Nanog” value in [5] is given as “reduced”. Moreover, the “expression of C-myc” value in experiment [6] was “reduced”. Also, the “expression of Sox2” value in experiment [7] is listed as “reduced”. Further, the “expression of Oct4” value in experiment [8] is given as “reduced”. Also, in experiment [9], the “expression of CD44” value is on record as “reduced”.
